The target in this test is T1, human ferroportin (Homo sapiens, UniProt Q9NP59).
T1 construct: luciferase reporter (read with the Nano-Glo Luciferase Assay System); expressed in transfected cells; host or cells: CHO cells, stably transfected, expression induced with doxycycline
T1 sequence (Q9NP59 1-571): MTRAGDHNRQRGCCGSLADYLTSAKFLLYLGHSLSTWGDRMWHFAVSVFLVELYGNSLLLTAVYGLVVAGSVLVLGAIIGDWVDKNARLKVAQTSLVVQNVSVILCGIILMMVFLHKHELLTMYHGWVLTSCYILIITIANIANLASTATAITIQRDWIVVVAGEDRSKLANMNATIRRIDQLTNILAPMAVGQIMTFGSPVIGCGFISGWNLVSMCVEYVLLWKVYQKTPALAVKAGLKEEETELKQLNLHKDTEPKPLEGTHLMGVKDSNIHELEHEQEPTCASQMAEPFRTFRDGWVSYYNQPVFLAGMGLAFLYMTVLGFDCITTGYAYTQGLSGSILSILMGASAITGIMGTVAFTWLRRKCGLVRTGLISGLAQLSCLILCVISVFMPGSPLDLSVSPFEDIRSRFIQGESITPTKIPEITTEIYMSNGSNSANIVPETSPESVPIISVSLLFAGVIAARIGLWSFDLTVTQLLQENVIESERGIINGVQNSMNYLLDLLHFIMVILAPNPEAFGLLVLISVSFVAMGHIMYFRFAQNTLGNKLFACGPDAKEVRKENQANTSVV
Briefly: Biological in-vitro ferroportin internalization assay (luciferase reporter). It is filed as cell-based. Particulars: average pEC50; stably-transfected CHO cell line expressing human ferroportin tagged to a luciferase reporter; 6 h incubation with test compound. The procedure, abridged:
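Read-out is Nano-Glo luciferase signal after 6 h compound exposure, with average pEC50 derived. Cells are a stable CHO line carrying luciferase-tagged human ferroportin, pre-loaded 24 h with ferric ammonium citrate and doxycycline-induced for 24 h.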
A general note: In a reporter assay the amount or activity of a reporter protein is the signal.
With `CN(CC(=O)NC(C)(C)C)c1cc(-c2ncccn2)nc2c1CCC2` [Compound 67, N-tert-butyl-2-{methyl[2-(pyrimidin-2-yl)-5H,6H,7H-cyclopenta[b]pyridin-4-yl]amino}acetamide], the pEC50 (usually the negative decadic logarithm of the EC50, by convention in mol/L) is 6.6. As for `Cc1ccnc(-c2cc(N(C)CC(=O)NC(C)(C)C)c3c(n2)CCC3)c1` [Compound 68, N-tert-butyl-2-{methyl[2-(4-methylpyridin-2-yl)-5H,6H,7H-cyclopenta[b]pyridin-4-yl]amino}acetamide], the figure is 7.2. The molecule `Cc1cnc(CCNC(=O)CN(C)c2nc(-c3ccccn3)nc3c2CCC3)n1C1CCC1` [Compound 69, N-[2-(1-cyclobutyl-5-methyl-1H-imidazol-2-yl)ethyl]-2-{methyl[2-(pyridin-2-yl)-5H,6H,7H-cyclopenta[d]pyrimidin-4-yl]amino}acetamide] displayed a pEC50 of 7. As for `CN(CC(=O)Nc1nnc(N2CCCCCC2)s1)c1nc(-c2ccccn2)nc2c1CCC2` [Compound 70, N-[5-(azepan-1-yl)-1,3,4-thiadiazol-2-yl]-2-{methyl[2-(pyridin-2-yl)-5H,6H,7H-cyclopenta[d]pyrimidin-4-yl]amino}acetamide], the figure is 7.4.

Regarding `c1ccc(-c2nc3c(c(N4CC5CC4CO5)n2)CCC3)nc1` (stereo not drawn) [Compound 72, 5-[2-(pyridin-2-yl)-5H,6H,7H-cyclopenta[d]pyrimidin-4-yl]-2-oxa-5-azabicyclo[2.2.1]heptane], the pEC50 worked out at 5.5. Turning to `CN(Cc1ccccn1)c1nc(-c2ccccn2)nc2c1CCC2` [Compound 73, N-methyl-2-(pyridin-2-yl)-N-[(pyridin-2-yl)methyl]-5H,6H,7H-cyclopenta[d]pyrimidin-4-amine], the pEC50 is 6.8. Turning to `COc1ccc(NC(=O)CN(C)c2nc(-c3ccccn3)nc3c2CCC3)cc1` [Compound 75, N-(4-methoxyphenyl)-2-{methyl[2-(pyridin-2-yl)-5H,6H,7H-cyclopenta[d]pyrimidin-4-yl]amino}acetamide], the pEC50 is listed as 7.5. In turn, `c1ccc(-c2nc3c(c(N4CCCc5ccccc54)n2)CCC3)nc1` [Compound 76, 1-[2-(pyridin-2-yl)-5H,6H,7H-cyclopenta[d]pyrimidin-4-yl]-1,2,3,4-tetrahydroquinoline] came in with a pEC50 of 6.

`CN(CC(=O)Nc1ccccc1)c1nc(-c2ccccn2)nc2c1CCC2` [Compound 77, 2-{methyl[2-(pyridin-2-yl)-5H,6H,7H-cyclopenta[d]pyrimidin-4-yl]amino}-N-phenylacetamide]: the pEC50 was 7. The molecule `CN(CC(=O)NC1CCCCC1)c1nc(-c2ccccn2)nc2c1CCC2` [Compound 78, N-cyclohexyl-2-{methyl[2-(pyridin-2-yl)-5H,6H,7H-cyclopenta[d]pyrimidin-4-yl]amino}acetamide] had a pEC50 of 7.4. As for `CN(CC(=O)NC1CCOCC1)c1nc(-c2ccccn2)nc2c1CCC2` [Compound 79, 2-{methyl[2-(pyridin-2-yl)-5H,6H,7H-cyclopenta[d]pyrimidin-4-yl]amino}-N-(oxan-4-yl)acetamide], the figure is 6.5; as for `CCN(Cc1ncccn1)c1nc(-c2ccccn2)nc2c1CCC2` [Compound 80, N-ethyl-2-(pyridin-2-yl)-N-[(pyrimidin-2-yl)methyl]-5H,6H,7H-cyclopenta[d]pyrimidin-4-amine], 6.8. `CN(Cc1ncccn1)c1nc(-c2ccccn2)nc2c1CCC2` [Compound 81, N-methyl-2-(pyridin-2-yl)-N-[(pyrimidin-2-yl)methyl]-5H,6H,7H-cyclopenta[d]pyrimidin-4-amine] yielded a pEC50 of 6.8. Consider `CN(Cc1nc2ccccc2o1)c1nc(-c2ccccn2)nc2c1CCC2` [Compound 82, N-[(1,3-benzoxazol-2-yl)methyl]-N-methyl-2-(pyridin-2-yl)-5H,6H,7H-cyclopenta[d]pyrimidin-4-amine], for which the pEC50 came out at 6.8. With `c1ccc(-c2nc3c(c(N4CCc5ccccc5CC4)n2)CCC3)nc1` [Compound 83, 3-[2-(pyridin-2-yl)-5H,6H,7H-cyclopenta[d]pyrimidin-4-yl]-2,3,4,5-tetrahydro-1H-3-benzazepine] the figure was 6.9; with `COCCN(C)c1nc(-c2ccccn2)nc2c1CCC2` [Compound 84, N-(2-methoxyethyl)-N-methyl-2-(pyridin-2-yl)-5H,6H,7H-cyclopenta[d]pyrimidin-4-amine], 6.6.

Regarding `CN1CCCN(c2nc(-c3ccccn3)nc3c2CCC3)CC1` [Compound 85, 1-methyl-4-[2-(pyridin-2-yl)-5H,6H,7H-cyclopenta[d]pyrimidin-4-yl]-1,4-diazepane], the pEC50 is on record as 5.5. `CN(CC(=O)N1CCOCC1)c1nc(-c2ccccn2)nc2c1CCC2` [Compound 86, 2-{methyl[2-(pyridin-2-yl)-5H,6H,7H-cyclopenta[d]pyrimidin-4-yl]amino}-1-(morpholin-4-yl)ethan-1-one] showed a negative-log EC50 (pEC50) of 6.8. `CN(CCOc1ccccc1)c1nc(-c2ccccn2)nc2c1CCC2` [Compound 87, N-methyl-N-(2-phenoxyethyl)-2-(pyridin-2-yl)-5H,6H,7H-cyclopenta[d]pyrimidin-4-amine] returned a pEC50 of 6.6. `CN(CC(=O)N1CCCCC1)c1nc(-c2ccccn2)nc2c1CCC2` [Compound 88, 2-{methyl[2-(pyridin-2-yl)-5H,6H,7H-cyclopenta[d]pyrimidin-4-yl]amino}-1-(piperidin-1-yl)ethan-1-one] displayed a pEC50 of 7.1. With `CN(CC(=O)NC(C)(C)C)c1nc(-c2ccccn2)nc2c1CCC2` [Compound 89, N-tert-butyl-2-{methyl[2-(pyridin-2-yl)-5H,6H,7H-cyclopenta[d]pyrimidin-4-yl]amino}acetamide] the figure was 7.3; with `CC(C(=O)NC(C)(C)C)N(C)c1nc(-c2ccccn2)nc2c1CCC2` (stereo not drawn) [Compound 90, N-tert-butyl-2-{methyl[2-(pyridin-2-yl)-5H,6H,7H-cyclopenta[d]pyrimidin-4-yl]amino}propanamide], 7.4.

In turn, `CC(C(=O)NC1CCCCC1)N(C)c1nc(-c2ccccn2)nc2c1CCC2` (stereo not drawn) [Compound 91, N-cyclohexyl-2-{methyl[2-(pyridin-2-yl)-5H,6H,7H-cyclopenta[d]pyrimidin-4-yl]amino}propanamide] showed a pEC50 of 7.3. With `c1ccc(-c2nc3c(c(N4CCCCCC4)n2)CCC3)nc1` [Compound 92, 1-[2-(pyridin-2-yl)-5H,6H,7H-cyclopenta[d]pyrimidin-4-yl]azepane] the figure was 6.5; with `c1ccc(-c2nc3c(c(N4CCCOCC4)n2)CCC3)nc1` [Compound 93, 4-[2-(pyridin-2-yl)-5H,6H,7H-cyclopenta[d]pyrimidin-4-yl]-1,4-oxazepane], 6.1; with `c1nc(-c2nc3c(c(N4CCCCCC4)n2)CCC3)cs1` [Compound 94, 1-[2-(1,3-thiazol-4-yl)-5H,6H,7H-cyclopenta[d]pyrimidin-4-yl]azepane], 6.3.

`CN(c1nc(-c2ccccn2)nc2c1CCC2)C1CCN(c2ccccc2)C1=O` (stereo not drawn) [Compound 95, 3-{methyl[2-(pyridin-2-yl)-5H,6H,7H-cyclopenta[d]pyrimidin-4-yl]amino}-1-phenylpyrrolidin-2-one] returned a pEC50 of 7.3. With `Clc1ccnc(-c2nc3c(c(N4CCCCCC4)n2)CCC3)c1` [Compound 96, 1-[2-(4-chloropyridin-2-yl)-5H,6H,7H-cyclopenta[d]pyrimidin-4-yl]azepane] the figure was 6.6; with `Cn1cnc(-c2nc3c(c(N4CCCCCC4)n2)CCC3)c1` [Compound 97, 1-[2-(1-methyl-1H-imidazol-4-yl)-5H,6H,7H-cyclopenta[d]pyrimidin-4-yl]azepane], 7.1. As for `CN(CC(=O)NC1(C(F)(F)F)CC1)c1nc(-c2ccccn2)nc2c1CCC2` [Compound 98, 2-{methyl[2-(pyridin-2-yl)-5H,6H,7H-cyclopenta[d]pyrimidin-4-yl]amino}-N-[1-(trifluoromethyl)cyclopropyl]acetamide], the figure is 7; as for `COc1ccnc(-c2nc3c(c(N(C)CC(=O)NC4(C(F)(F)F)CC4)n2)CCC3)c1` [Compound 99, 2-{[2-(4-methoxypyridin-2-yl)-5H,6H,7H-cyclopenta[d]pyrimidin-4-yl](methyl)amino}-N-[1-(trifluoromethyl)cyclopropyl]acetamide], 7.3. As for `CCc1ccnc(-c2nc3c(c(N(C)CC(=O)NC(C)(C)C)n2)CCC3)c1` [Compound 100, N-tert-butyl-2-{[2-(4-ethylpyridin-2-yl)-5H,6H,7H-cyclopenta[d]pyrimidin-4-yl](methyl)amino}acetamide], the figure is 7.5; as for `COc1ccnc(-c2nc3c(c(N(C)[C@H](C)C(=O)NC(C)(C)C)n2)CCC3)c1` [Compound 101, (2R)—N-tert-butyl-2-{[2-(4-methoxypyridin-2-yl)-5H,6H,7H-cyclopenta[d]pyrimidin-4-yl](methyl)amino}propanamide], 8.2.

The values are drawn from patent US11746100B2 (GLOBAL BLOOD THERAPEUTICS, INC., priority 2020, dated 2023).
